Assay results published in article PMC11247487, “Discovery of Dual MER/AXL Kinase Inhibitors as Bifunctional Small Molecules for Inhibiting Tumor Growth and Enhancing Tumor Immune Microenvironment” (Journal of Medicinal Chemistry, 2024).
Values joined by “and” are separate entries in the source; they are usually repeats but may differ in a detail not shown here. Identical values can stand only once. Like-named read-outs stand apart in the source and are kept apart here.

Tests used:
[1] = system: Ba/F3-MER cells; experiment: Cell viability assay (MTS); format: cell-based; conditions: 72 h
[2] = biological target: EGFR^DM (T790M/L858R) (Homo sapiens, UniProt P00533, L858R/T790M); experiment: EGFR^DM in-house Kinase-Glo assay; format: biochemical
[3] = biological target: T1, AXL (Homo sapiens, UniProt P30530); experiment: AXL enzyme inhibition assay (ADP-Glo); format: biochemical; conditions: for inhibition at 1 µM: read-out: AXL inh. @ 1 μM
T1 construct: A purified kinase (MER or AXL) was incubated with a compound or DMSO
T1 sequence (P30530 26-894): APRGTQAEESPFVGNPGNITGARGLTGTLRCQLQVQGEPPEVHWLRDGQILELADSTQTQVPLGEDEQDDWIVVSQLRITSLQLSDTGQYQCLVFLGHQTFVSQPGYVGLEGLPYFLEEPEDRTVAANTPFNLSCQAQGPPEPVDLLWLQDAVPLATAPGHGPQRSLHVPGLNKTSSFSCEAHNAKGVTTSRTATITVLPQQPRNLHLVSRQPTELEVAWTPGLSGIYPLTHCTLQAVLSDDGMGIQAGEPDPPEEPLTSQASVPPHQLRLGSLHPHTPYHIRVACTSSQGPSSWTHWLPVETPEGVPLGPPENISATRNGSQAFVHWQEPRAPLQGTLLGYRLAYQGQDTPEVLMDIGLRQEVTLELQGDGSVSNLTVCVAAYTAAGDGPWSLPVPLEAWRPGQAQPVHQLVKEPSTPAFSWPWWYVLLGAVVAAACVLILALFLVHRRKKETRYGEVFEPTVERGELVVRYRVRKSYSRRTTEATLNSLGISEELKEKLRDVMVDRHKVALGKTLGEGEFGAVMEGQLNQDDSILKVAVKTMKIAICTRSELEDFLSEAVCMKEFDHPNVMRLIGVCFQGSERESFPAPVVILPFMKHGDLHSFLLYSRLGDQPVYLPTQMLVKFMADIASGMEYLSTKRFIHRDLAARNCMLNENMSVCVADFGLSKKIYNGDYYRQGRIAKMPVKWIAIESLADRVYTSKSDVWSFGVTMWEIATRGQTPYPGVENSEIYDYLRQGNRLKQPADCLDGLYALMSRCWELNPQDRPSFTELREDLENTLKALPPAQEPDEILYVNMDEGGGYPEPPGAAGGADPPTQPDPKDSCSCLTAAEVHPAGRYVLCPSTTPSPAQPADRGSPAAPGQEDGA

[4] = biological target: EGFR^WT (Homo sapiens, UniProt P00533); experiment: EGFR^WT in-house Kinase-Glo assay; format: biochemical; conditions: for inhibition at 1 µM: read-out: EGFR^WT inh. @ 1 μM
[5] = biological target: T2, MER (Homo sapiens, UniProt Q12866); experiment: MER enzyme inhibition assay (in-house Kinase-Glo); format: biochemical; conditions: for inhibition at 1 µM: read-out: MER inh. @ 1 μM
T2 construct: A purified kinase (MER or AXL) was incubated with a compound or DMSO
T2 sequence (Q12866 21-999): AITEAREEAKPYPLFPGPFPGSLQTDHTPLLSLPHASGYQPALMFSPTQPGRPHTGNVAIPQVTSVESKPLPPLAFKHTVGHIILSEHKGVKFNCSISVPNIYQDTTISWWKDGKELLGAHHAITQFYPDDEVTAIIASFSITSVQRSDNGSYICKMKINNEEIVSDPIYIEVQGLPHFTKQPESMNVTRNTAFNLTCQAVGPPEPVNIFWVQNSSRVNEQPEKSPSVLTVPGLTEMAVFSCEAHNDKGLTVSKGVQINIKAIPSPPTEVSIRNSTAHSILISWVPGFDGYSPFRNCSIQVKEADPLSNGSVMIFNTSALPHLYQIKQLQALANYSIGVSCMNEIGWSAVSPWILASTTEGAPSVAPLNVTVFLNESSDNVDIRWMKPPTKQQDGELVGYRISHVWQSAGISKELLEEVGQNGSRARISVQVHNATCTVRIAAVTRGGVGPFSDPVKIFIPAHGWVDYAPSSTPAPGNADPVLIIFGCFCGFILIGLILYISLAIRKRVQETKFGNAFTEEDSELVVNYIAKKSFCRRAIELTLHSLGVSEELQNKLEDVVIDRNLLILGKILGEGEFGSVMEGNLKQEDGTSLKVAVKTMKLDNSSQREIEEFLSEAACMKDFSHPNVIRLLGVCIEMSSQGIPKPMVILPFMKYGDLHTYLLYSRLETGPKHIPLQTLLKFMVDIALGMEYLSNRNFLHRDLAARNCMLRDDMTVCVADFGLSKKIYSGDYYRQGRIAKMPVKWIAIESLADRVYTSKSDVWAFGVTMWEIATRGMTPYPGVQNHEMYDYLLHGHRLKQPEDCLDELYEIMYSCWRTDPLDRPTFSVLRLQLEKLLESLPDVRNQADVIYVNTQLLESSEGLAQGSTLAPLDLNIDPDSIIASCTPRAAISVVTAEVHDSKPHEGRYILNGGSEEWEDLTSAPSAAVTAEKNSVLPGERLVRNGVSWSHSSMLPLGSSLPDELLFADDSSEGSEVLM

[6] = In vitro microsomal stability assay; format: in vitro ADME; conditions: 1 μM, mouse liver microsomes, percent remaining at 30 min
Procedure: All incubations were initiated with the addition of NADPH-generating system at 37 °C for 30 min. At 0 and the end of incubation, 100 μL of aliquots were taken from the incubation mixture and placed into centrifuge tubes containing 100 μL of ice-cold acetonitrile to terminate the metabolic reaction. The samples were vortexed and centrifuged, and then, the supernatant injected onto LC/MS. Percent of remaining of each compound was calculated by comparing peak areas at 30 min to that at the initiation of incubation.

[7] = In vivo pharmacokinetics study; conditions: mice; for clearance at 24 h: read-out: iv CL; for Vd at 24 h: read-out: iv Vss; for iv DNAUC(0–inf) / po DNAUC(0–inf) / po DNCmax: dose-normalized
Procedure: The animal studies were performed according to NHRI institutional animal care and committee-approved procedures. Male ICR mice (25–35 g) were obtained from BioLASCO (Taiwan Co., Ltd., Ilan, Taiwan). […] All samples were analyzed for the parent drug by LC-MS/MS. Plasma concentration data were analyzed with a noncompartmental method.

[8] = male, ICR, mouse, plasma, iv 2 mg/kg
[9] = male, ICR, mouse, plasma, iv 2 mg/kg, read-out: iv T1/2 (converted)
[10] = male, ICR, mouse, plasma, iv 2 mg/kg, po 10 mg/kg
[11] = male, ICR, mouse, plasma, po 10 mg/kg
[12] = male, ICR, mouse, plasma, po 10 mg/kg, read-out: po T1/2 (converted)

Row | Compound | IC50 [1] | Microsomal stability @ 30 min [6] [%] | clearance at 24 h [7, 8] [mL/min/kg] | half-life at 24 h [7, 9] [h] | Vd at 24 h [7, 8] [L/kg] | iv DNAUC(0–inf) ([7]; iv 2 mg/kg) | bioavailability at 24 h [7, 10] [%] | po DNAUC(0–inf) ([7]; po 10 mg/kg) [ng·h/mL] | po DNCmax ([7]; po 10 mg/kg) [ng/mL] | EGFR^DM inh. @ 1 μM [2] [%] | AXL inh. @ 1 μM [3] [%] | EGFR^WT inh. @ 1 μM [4] [%] | MER inh. @ 1 μM [5] [%] | further results
1 | Nc1cccc(-c2c(-c3ccccc3)oc3ncnc(Oc4ccc(NC(=O)c5cccn(-c6ccc(F)cc6)c5=O)cc4)c23)c1 [Compound 17, N-(4-{[5-(3-Aminophenyl)-6-phenylfuro[5,4-d]pyrimidin-4-yl]oxy}phenyl)-1-(4-fluorophenyl)-2-oxo-1,2-dihydropyridine-3-carboxamide] | 8.4 nM and 8.2 nM |  |  |  |  |  |  |  |  |  |  |  |  | inhibition at 1 µM ([2]; read-out: EGFR^DM inh. @ 1 μM): -1%; inhibition at 1 µM [3]: 100%; inhibition at 1 µM [4]: 1%; inhibition at 1 µM [5]: 70%
2 | Cn1cc(-c2oc3ncnc(Oc4ccc(NC(=O)c5cccn(-c6ccc(F)cc6)c5=O)cc4)c3c2-c2cccc(CN)c2)cn1 [Compound 31, N-[4-({5-[3-(Aminomethyl)phenyl]-6-(1-methyl-1H-pyrazol-4-yl)furo[2,3-d]pyrimidin-4-yl}oxy)phenyl]-1-(4-fluorophenyl)-2-oxo-1,2-dihydropyridine-3-carboxamide] | 7.6 nM | 77 | 35.1 | 6.3 | 9.9 | 483.0 ng·h/mL |  |  |  |  |  |  |  | 
3 | CN(C)Cc1ccc(-c2c(-c3cnn(C)c3)oc3ncnc(Oc4ccc(NC(=O)c5cccn(-c6ccc(F)cc6)c5=O)cc4)c23)cc1 [Compound 39, N-{4-[(5-{4-[(Dimethylamino)methyl]phenyl}-6-(1-methyl-1H-pyrazol-4-yl)furo[2,3-d]pyrimidin-4-yl)oxy]phenyl}-1-(4-fluorophenyl)-2-oxo-1,2-dihydropyridine-3-carboxamide] |  | 67 | 84 | 11.2 | 8 | 208.0 ng·h/mL | 26.2 | 54.4 | 5.7 |  |  |  |  | bioavailability [7, 10]: > 20%; Tmax at 24 h [7, 11]: 2 h; half-life at 24 h [7, 12]: 2.4 h
4 | CC(=O)Nc1cccc(-c2c(-c3cnn(C)c3)oc3ncnc(Oc4ccc(NC(=O)c5cccn(-c6ccc(F)cc6)c5=O)cc4)c23)c1 [Compound 28, N-[4-({5-[3-(Acetylamino)phenyl]-6-(1-methyl-1H-pyrazol-4-yl)furo[2,3-d]pyrimidin-4-yl}oxy)phenyl]-1-(4-fluorophenyl)-2-oxo-1,2-dihydropyridine-3-carboxamide] | 1 nM | 91 | 20.5 | 12.7 | 10.5 | 766.5 ng·h/mL |  |  |  |  |  |  |  | 
5 | Cn1cc(-c2oc3ncnc(Oc4ccc(NC(=O)c5cccn(-c6ccc(F)cc6)c5=O)cc4)c3c2-c2cccc(N3CCNCC3)c2)cn1 [Compound 34, 1-(4-Fluorophenyl)-N-[4-({6-(1-methyl-1H-pyrazol-4-yl)-5-[3-(piperazin-1-yl)phenyl]furo[2,3-d]pyrimidin-4-yl}oxy)phenyl]-2-oxo-1,2-dihydropyridine-3-carboxamide] | 8.4 nM | 83 | 42.9 | 6.7 | 14.2 | 454.5 ng·h/mL | 0.6 | 2.6 | 0.7 |  |  |  |  | IC50 [3]: 12.1 nM; Tmax [7, 11]: 2.2 h; half-life at 24 h [7, 12]: 4.7 h; IC50 [5]: 2.1 nM
6 | (4-{[5-(3-Aminophenyl)-6-phenylfuro[5,4-d]pyrimidin-4-yl]oxy}phenyl)-N-(phenylacetyl)carbamothioic amide [Compound 16] | 1140 nM |  |  |  |  |  |  |  |  | −6 | 95 | 1 | 9 | 
7 | CNc1cccc(-c2c(-c3cnn(C)c3)oc3ncnc(Oc4ccc(NC(=O)c5cccn(-c6ccc(F)cc6)c5=O)cc4)c23)c1 [Compound 29, 1-(4-Fluorophenyl)-N-[4-({5-[3-(methylamino)phenyl]-6-(1-methyl-1H-pyrazol-4-yl)furo[2,3-d]pyrimidin-4-yl}oxy)phenyl]-2-oxo-1,2-dihydropyridine-3-carboxamide] | 1.2 nM | 100 | 5.3 | 8.5 | 1.3 | 3,330.5 ng × hr/mL | 0.5 | 15.3 | 1.4 |  |  |  |  | Tmax at 24 h [7, 11]: 24 h
8 | N^1-(4-{[5-(3-Aminophenyl)-6-phenylfuro[2,3-d]pyrimidin-4-yl]oxy}phenyl)-N^1-(4-fluorophenyl)cyclopropane-1,1-dicarboxamide [Compound 12] | 73.6 nM |  |  |  |  |  |  |  |  | −9 | 100 | 0 | 71 | 
9 | N^1-(4-{[5-(3-Aminophenyl)-6-phenylfuro[2,3-d]pyrimidin-4-yl]amino}phenyl)-N^1-(4-fluorophenyl)cyclopropane-1,1-dicarboxamide [Compound 15] | 713 nM |  |  |  |  |  |  |  |  | −4 | 92 | 1 | 19 | 
10 | C=CC(=O)Nc1cccc(-c2c(-c3ccccc3)oc3ncnc(Oc4ccc(NC(=O)C5(C(=O)Nc6ccc(F)cc6)CC5)cc4)c23)c1 [Compound 11] | 618 nM |  |  |  |  |  |  |  |  |  |  |  |  | IC50 ([2]; cell marked b = IC50 value): 42 nM; inhibition at 1 µM [3]: 96%; inhibition at 1 µM [4]: 40%; inhibition at 1 µM [5]: 14%
